Assay results reported in US11945807B2, “Splicing modulator antibody-drug conjugates and methods of use” (EISAI R&D MANAGEMENT CO., LTD., priority 2018, dated 2024).
Read-outs that look alike come from different tables or passages of the source.

Assays:
[1] = system: FBXW5 (mature mRNA transcript); assay: In vivo PD RT-qPCR in NCI-N87 tumors, FBXW5; set-up: species or system CB17-SCID mice; details: single IV 10 mg/kg; N=4; FIG. 24
[2] = system: TAOK1 (neojunction transcript); assay: In vivo PD RT-qPCR in NCI-N87 tumors, TAOK1; set-up: species or system CB17-SCID mice; details: single IV 10 mg/kg; N=4; FIG. 24
Ad2.2 pre-mRNA = assay: In vitro splicing (IVS) RT-qPCR, HeLa nuclear extract, Ad2.2; assay type: biochemical
Experimental: (§1) To evaluate payload activity in a cell-free system, an in vitro splicing assay was performed. The payloads were incubated with nuclear extracts and pre-mRNA substrate minigenes.
(§2) HeLa nuclear extract preparation: HeLa S3 cell pellets were resuspended in hypotonic buffer (10 mM HEPES pH 7.9, 1.5 mM MgCl2, 10 mM KCl, 0.2 mM PMSF, 0.5 mM DTT) and the suspension was brought up to a total of 5 packed cell volume (PCV). After centrifugation, the supernatant was discarded, and the cells were brought up to 3 PCV with hypotonic buffer and incubated on ice for 10 min. Cells were lysed using a dounce homogenizer and then centrifuged. […]. The nuclei were gently mixed for 30 min before centrifuging. The supernatant (nuclear extract) was then dialyzed into storage buffer (20 mM HEPES pH 7.9, 100 mM KCl, 0.2 mM EDTA, 20% glycerol, 0.2 mM PMSF, 0.5 mM DTT). Protein concentration was determined using NanoDrop 8000 UV-Vis spectrophotometer (ThermoFisher Scientific).
IVS: All Ad2-derived sequences (Pellizzoni et al. (1998) Cell 95(5):615-24) were cloned into pcDNA3.1(+) vector (Promega) using 5′ EcoRI and 3′ Xbal restriction sites. The plasmids were linearized using Xbal and used as DNA templates in in vitro transcription reactions. The FtzΔi intron-less plasmid (Luo and Reed (1999) 96(26):14937-42) was linearized using EcoRI. All RNAs were in vitro transcribed and then purified using MEGAScript T7 (Invitrogen) and MegaClear (Invitrogen) kits, respectively. For splicing reactions using Ad2 variant pre-mRNAs, 1 μL reactions were prepared using 8 μg nuclear extracts prepared from HeLa S3, 2 ng pre-mRNA, 0.2 ng FTZΔi, and varying concentrations of compounds or DMSO. After a 15 min pre-incubation at 30° C., 1 μL splicing activation buffer (0.5 mM ATP, 20 mM creatine phosphate, 1.6 mM MgCl2) was added, and the reactions were incubated for 90 min at 30° C. The reactions were then quenched with 13 μL DMSO, and 25 nL was used for RT-qPCR. RT-qPCR reactions were prepared using TaqMan RNA-to-CT 1-step kit (Life Technologies), RNA from splicing reactions, Ad2 (forward: […]; reverse: […]; probe: […]) and Ftz (forward: […]; reverse: […]; probe: […]) mRNA primer-probe sets. Prism 7 (Graphpad) was used for non-linear regression curve fitting of the formed spliced product and normalized to the control (DMSO) sample. […] In the presence of payload, a decrease in the amount of spliced product was observed.

Ad2.1 pre-mRNA = assay: In vitro splicing (IVS) RT-qPCR, HeLa nuclear extract, Ad2.1; assay type: biochemical; details: unconjugated payload; HeLa nuclear extract; read-out: qPCR-IVS-AT S Gmean IC50 (nm) Ad2.1 HELA.2
Experimental: as §1, §2
IVS: All Ad2-derived sequences (Pellizzoni et al. (1998) Cell 95(5):615-24) were cloned into pcDNA3.1(+) vector (Promega) using 5′ EcoRI and 3′ Xbal restriction sites. The plasmids were linearized using Xbal and used as DNA templates in in vitro transcription reactions. The FtzΔi intron-less plasmid (Luo and Reed (1999) 96(26):14937-42) was linearized using EcoRI. All RNAs were in vitro transcribed and then purified using MEGAScript T7 (Invitrogen) and MegaClear (Invitrogen) kits, respectively. For splicing reactions using Ad2 variant pre-mRNAs, 1 μL reactions were prepared using 8 μg nuclear extracts prepared from HeLa S3, 2 ng pre-mRNA, 0.2 ng FTZΔi, and varying concentrations of compounds or DMSO. After a 15 min pre-incubation at 30° C., 1 μL splicing activation buffer (0.5 mM ATP, 20 mM creatine phosphate, 1.6 mM MgCl2) was added, and the reactions were incubated for 90 min at 30° C. The reactions were then quenched with 13 μL DMSO, and 25 nL was used for RT-qPCR. […]

Caco-2 cells = assay: Caco-2 permeability of ADC payload; assay type: in vitro ADME; details: unconjugated payload; apical to basolateral, 2 hours
[3] = biochemical splicing assay, corresponding free payload, read-out: qPCR-IVS-ATS GMean IC50 (nM) Ad2.2 HELA.2

SMILES | change of FBXW5 mature mRNA transcript in tumor [1] | change of TAOK1 neojunction transcript in tumor [2] | IC50 (Ad2.2 pre-mRNA; [3]) [nM] | further results
CC[C@H](O)[C@@H](C)C1OC1C[C@@](C)(O)/C=C/C=C(\C)[C@H]1OC(=O)C[C@H](O)CC[C@@](C)(OC)[C@@H](OC(=O)N2CCN(CCN3C(=O)C=CC3=O)CC2)/C=C/[C@@H]1C (stereo in doubt) [ADL14-D1, (2S,3S,6S,7R,10R,E)-10-hydroxy-2-((R,2E,4E)-6-hydroxy-7-((2S,3S)-3-((2R,3S)-3-hydroxypentan-2-yl)oxiran-2-yl)-6-methylhepta-2,4-dien-2-yl)-7-methoxy-3,7-dimethyl-12-oxooxacyclododec-4-en-6-yl 4-(2-(2,5-dioxo-2,5-dihydro-1H-pyrrol-1-yl)ethyl)piperazine-1-carboxylate] | did not exhibit statistically significant changes | did not exhibit statistically significant changes |  | 
CC[C@H](O)[C@@H](C)[C@H]1O[C@@H]1C[C@@](C)(O)/C=C/C=C(\C)[C@H]1OC(=O)C[C@H](O)CC[C@@](C)(OC(C)=O)[C@@H](OC(=O)N2CCN(C(=O)OCc3ccc(NC(=O)[C@H](CCCNC(N)=O)NC(=O)[C@@H](NC(=O)CCCCCN4C(=O)C=CC4=O)C(C)C)cc3)CC2)/C=C/[C@@H]1C [ADL1-D4] | significant depletion | significant increases |  | 
CC(=O)N1CCC(n2nnc3c(F)cc(/C=C(\C)[C@H]4OC(=O)C[C@H](O)CC[C@H](C)[C@@H](OC(=O)N5CC[N+](C)(Cc6ccc(NC(=O)[C@H](C)NC(=O)[C@@H](NC(=O)CCCCCN7C(=O)C=CC7=O)C(C)C)cc6)CC5)/C=C/[C@@H]4C)cc32)CC1 [ADL5-D15, 4-((((2S,3S,6R,7S,10R,E)-2-((E)-1-(1-(1-acetylpiperidin-4-yl)-4-fluoro-1H-benzo[d][1,2,3]triazol-6-yl)prop-1-en-2-yl)-10-hydroxy-3,7-dimethyl-12-oxooxacyclododec-4-en-6-yl)oxy)carbonyl)-1-(4-((S)-2-((S)-2-(6-(2,5-dioxo-2,5-dihydro-1H-pyrrol-1-yl)hexanamido)-3-methylbutanamido)propanamido)benzyl)-1-methylpiperazin-1-ium] | significant depletion | an increase in TAOK1, but did not reach statistical significance |  | 
CC[C@H](O)[C@@H](C)[C@H]1O[C@@H]1C[C@@](C)(O)/C=C/C=C(\C)[C@H]1OC(=O)C[C@H](O)CC[C@@](C)(OC(C)=O)[C@@H](OC(=O)N2CCN(CCN)CC2)/C=C/[C@@H]1C [D3, (2S,3S,6S,7R,10R,E)-7-acetoxy-10-hydroxy-2-((R,2E,4E)-6-hydroxy-7-((2R,3R)-3-((2R,3S)-3-hydroxypentan-2-yl)oxiran-2-yl)-6-methylhepta-2,4-dien-2-yl)-3,7-dimethyl-12-oxooxacyclododec-4-en-6-yl 4-(2-aminoethyl)piperazine-1-carboxylate] |  |  | 10.9 | 
CC[C@H](O)[C@@H](C)[C@H]1O[C@@H]1C[C@@](C)(O)/C=C/C=C(\C)[C@H]1OC(=O)C[C@H](O)CC[C@@](C)(OC(C)=O)[C@@H](OC(=O)N2C[C@@H]3C[C@H]2CN3)/C=C/[C@@H]1C [D5, (2S,3S,6S,7R,10R,E)-7-acetoxy-10-hydroxy-2-((R,2E,4E)-6-hydroxy-7-((2R,3R)-3-((2R,3S)-3-hydroxypentan-2-yl)oxiran-2-yl)-6-methylhepta-2,4-dien-2-yl)-3,7-dimethyl-12-oxooxacyclododec-4-en-6-yl (1S,4S)-2,5-diazabicyclo[2.2.1]heptane-2-carboxylate] |  |  | 23.9 | 
COc1cc2cc(c1Cl)N(C)C(=O)C[C@H](OC(=O)[C@H](C)N(C)C(=O)CCS)[C@]1(C)O[C@H]1[C@H](C)[C@@H]1C[C@@](O)(NC(=O)O1)[C@H](OC)/C=C/C=C(\C)C2 [DM1, reference compound] |  |  |  | IC50 (Ad2.1 pre-mRNA): > 25000 nM; IC50 (Ad2.2 pre-mRNA; unconjugated payload, HeLa nuclear extract, read-out: qPCR-IVS-AT S GMean IC50 (nM) Ad2.2 HELA.2): < 25000 nM; Permeability Mean Caco-2 A-B Perm (10e−6 cm/s) (Caco-2 cells): 0.38 10e−6 cm/s
